Key:
[1] = target: RAC-alpha serine/threonine-protein kinase (Homo sapiens) (UniProt P31749); experiment: Inhibition of AKT1 (unknown origin) assessed as residual activity at 1000 nM by KINOMEscan analysis relative to control
[2] = target: Macrophage colony-stimulating factor 1 receptor (Homo sapiens) (UniProt P07333); experiment: Inhibition of CSF1R (unknown origin) assessed as residual activity at 1000 nM by KINOMEscan analysis relative to control
[3] = test system: Receptor-type tyrosine-protein kinase FLT3 (Homo sapiens), P36888 [K663Q]; experiment: Inhibition of FLT3 K663Q mutant (unknown origin) assessed as residual activity at 1000 nM by KINOMEscan analysis relative to control
[4] = target: Tyrosine-protein kinase JAK1 (Homo sapiens) (UniProt P23458); experiment: Inhibition of JAK1 JH1 catalytic domain (unknown origin) assessed as residual activity at 1000 nM by KINOMEscan analysis relative to control
Tyrosine-protein kinase JAK1 (Homo sapiens), sequence (P23458 whole entry, the tested form may be a part): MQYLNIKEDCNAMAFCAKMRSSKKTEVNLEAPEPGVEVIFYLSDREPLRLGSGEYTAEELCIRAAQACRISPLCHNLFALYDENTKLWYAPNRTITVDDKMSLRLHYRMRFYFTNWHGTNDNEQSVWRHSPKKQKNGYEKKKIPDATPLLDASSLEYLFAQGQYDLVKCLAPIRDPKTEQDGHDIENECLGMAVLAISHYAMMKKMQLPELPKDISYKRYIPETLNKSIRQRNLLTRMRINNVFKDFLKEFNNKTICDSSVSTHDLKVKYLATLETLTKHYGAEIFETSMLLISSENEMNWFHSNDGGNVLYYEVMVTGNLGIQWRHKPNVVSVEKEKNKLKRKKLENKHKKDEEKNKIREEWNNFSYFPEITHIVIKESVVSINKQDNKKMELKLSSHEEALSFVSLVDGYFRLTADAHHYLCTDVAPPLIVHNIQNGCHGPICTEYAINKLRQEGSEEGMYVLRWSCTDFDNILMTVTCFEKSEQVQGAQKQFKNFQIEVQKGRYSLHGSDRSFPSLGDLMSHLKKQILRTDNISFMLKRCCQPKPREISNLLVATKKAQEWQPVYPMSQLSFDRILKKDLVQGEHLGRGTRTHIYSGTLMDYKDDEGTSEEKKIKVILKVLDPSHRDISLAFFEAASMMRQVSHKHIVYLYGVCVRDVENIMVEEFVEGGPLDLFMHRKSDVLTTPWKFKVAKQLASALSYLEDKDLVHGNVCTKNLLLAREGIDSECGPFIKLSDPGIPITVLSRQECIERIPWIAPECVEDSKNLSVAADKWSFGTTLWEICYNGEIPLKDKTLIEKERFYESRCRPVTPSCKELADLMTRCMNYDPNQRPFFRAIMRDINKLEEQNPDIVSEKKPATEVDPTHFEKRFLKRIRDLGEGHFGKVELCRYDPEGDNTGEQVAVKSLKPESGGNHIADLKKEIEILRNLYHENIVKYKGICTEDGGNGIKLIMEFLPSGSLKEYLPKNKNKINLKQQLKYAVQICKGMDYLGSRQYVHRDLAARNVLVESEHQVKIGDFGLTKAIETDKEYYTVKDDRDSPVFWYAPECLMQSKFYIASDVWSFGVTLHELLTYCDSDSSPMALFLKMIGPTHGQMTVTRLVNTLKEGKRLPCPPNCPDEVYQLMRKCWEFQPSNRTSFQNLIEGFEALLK

Homo sapiens = species on record: Homo sapiens; experiment: Inhibition of JNK2 (unknown origin) assessed as residual activity at 1000 nM by KINOMEscan analysis relative to control
[5] = target: Serine/threonine-protein kinase 10 (Homo sapiens) (UniProt O94804); experiment: Inhibition of LOK (unknown origin) assessed as residual activity at 1000 nM by KINOMEscan analysis relative to control
Serine/threonine-protein kinase 10 (Homo sapiens), sequence (O94804 whole entry, looked up): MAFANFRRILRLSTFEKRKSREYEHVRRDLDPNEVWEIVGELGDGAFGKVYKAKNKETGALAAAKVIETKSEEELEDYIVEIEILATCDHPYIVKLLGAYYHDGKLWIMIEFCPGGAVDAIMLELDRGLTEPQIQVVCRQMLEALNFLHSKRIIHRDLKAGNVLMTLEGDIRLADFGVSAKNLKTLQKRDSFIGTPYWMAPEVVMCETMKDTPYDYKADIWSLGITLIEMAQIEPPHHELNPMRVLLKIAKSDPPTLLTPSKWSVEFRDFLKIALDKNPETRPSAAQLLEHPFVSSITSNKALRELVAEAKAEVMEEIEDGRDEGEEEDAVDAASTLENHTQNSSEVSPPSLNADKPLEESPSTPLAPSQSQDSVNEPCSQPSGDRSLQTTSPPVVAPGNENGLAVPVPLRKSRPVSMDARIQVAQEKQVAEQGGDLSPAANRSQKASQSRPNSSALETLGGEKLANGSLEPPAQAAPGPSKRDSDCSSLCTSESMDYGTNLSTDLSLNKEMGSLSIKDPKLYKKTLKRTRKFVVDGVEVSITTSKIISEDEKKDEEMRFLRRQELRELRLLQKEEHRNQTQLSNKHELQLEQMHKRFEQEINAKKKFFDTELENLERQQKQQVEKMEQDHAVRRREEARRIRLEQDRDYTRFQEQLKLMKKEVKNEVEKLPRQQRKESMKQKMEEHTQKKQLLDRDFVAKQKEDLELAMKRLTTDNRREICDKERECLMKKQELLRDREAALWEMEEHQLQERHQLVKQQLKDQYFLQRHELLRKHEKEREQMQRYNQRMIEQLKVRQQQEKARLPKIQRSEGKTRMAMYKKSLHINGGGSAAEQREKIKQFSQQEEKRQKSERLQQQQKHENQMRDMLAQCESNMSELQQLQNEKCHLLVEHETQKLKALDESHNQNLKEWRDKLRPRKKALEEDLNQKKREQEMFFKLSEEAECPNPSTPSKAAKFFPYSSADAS

[6] = target: MAP kinase-activated protein kinase 2 (Homo sapiens) (UniProt P49137); experiment: Inhibition of MAPKAPK2 (unknown origin) assessed as residual activity at 1000 nM by KINOMEscan analysis relative to control
[7] = target: Serine/threonine-protein kinase MARK1 (Homo sapiens) (UniProt Q9P0L2); experiment: Inhibition of MARK1 (unknown origin) assessed as residual activity at 1000 nM by KINOMEscan analysis relative to control
[8] = test system: Hepatocyte growth factor receptor (Homo sapiens), P08581 [Y1235D]; experiment: Inhibition of MET Y1235D mutant (unknown origin) assessed as residual activity at 1000 nM by KINOMEscan analysis relative to control
[9] = target: Serine/threonine-protein kinase MRCK alpha (Homo sapiens) (UniProt Q5VT25); experiment: Inhibition of MRCKA (unknown origin) assessed as residual activity at 1000 nM by KINOMEscan analysis relative to control
Serine/threonine-protein kinase MRCK alpha (Homo sapiens), sequence (Q5VT25 whole entry): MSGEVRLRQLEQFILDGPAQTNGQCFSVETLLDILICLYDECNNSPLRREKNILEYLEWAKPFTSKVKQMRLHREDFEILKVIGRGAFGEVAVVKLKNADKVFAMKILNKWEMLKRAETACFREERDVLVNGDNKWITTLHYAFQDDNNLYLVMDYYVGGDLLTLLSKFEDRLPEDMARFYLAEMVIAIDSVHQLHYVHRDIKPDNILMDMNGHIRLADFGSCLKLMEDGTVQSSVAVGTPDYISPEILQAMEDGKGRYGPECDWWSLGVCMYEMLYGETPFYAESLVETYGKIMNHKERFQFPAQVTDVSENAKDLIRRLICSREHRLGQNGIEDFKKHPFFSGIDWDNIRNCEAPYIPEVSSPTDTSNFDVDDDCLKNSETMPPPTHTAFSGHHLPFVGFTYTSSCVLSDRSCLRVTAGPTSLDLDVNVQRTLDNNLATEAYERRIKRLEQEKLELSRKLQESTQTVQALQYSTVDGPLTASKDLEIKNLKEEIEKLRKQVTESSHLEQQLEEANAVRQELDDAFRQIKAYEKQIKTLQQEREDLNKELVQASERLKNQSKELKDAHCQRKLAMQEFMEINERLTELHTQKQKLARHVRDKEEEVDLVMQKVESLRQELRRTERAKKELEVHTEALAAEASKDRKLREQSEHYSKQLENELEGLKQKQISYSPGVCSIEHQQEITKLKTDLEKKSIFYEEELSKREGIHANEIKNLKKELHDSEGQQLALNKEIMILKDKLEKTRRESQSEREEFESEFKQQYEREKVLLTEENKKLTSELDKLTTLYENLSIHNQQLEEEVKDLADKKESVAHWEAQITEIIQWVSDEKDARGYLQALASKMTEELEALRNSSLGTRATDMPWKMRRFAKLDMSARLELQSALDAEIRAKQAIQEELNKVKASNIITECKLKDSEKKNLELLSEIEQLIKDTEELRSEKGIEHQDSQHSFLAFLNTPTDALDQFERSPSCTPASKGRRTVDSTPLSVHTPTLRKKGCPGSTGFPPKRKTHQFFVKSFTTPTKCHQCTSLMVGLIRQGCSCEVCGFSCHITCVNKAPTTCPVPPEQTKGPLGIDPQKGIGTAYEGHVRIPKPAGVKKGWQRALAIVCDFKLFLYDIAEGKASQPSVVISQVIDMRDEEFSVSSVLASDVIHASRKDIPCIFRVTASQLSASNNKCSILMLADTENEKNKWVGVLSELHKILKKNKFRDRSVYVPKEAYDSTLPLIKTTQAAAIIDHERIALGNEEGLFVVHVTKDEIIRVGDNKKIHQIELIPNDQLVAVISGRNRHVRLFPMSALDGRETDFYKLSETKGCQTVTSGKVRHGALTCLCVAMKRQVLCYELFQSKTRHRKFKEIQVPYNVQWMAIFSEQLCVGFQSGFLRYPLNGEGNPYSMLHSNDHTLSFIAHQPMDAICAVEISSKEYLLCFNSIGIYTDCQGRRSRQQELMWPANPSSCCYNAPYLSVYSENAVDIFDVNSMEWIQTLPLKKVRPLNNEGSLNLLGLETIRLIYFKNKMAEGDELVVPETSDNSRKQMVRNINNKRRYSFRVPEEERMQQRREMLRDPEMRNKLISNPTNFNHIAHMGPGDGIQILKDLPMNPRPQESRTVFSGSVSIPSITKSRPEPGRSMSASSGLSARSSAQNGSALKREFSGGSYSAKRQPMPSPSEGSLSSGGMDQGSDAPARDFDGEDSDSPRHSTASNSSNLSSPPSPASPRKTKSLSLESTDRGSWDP

[10] = target: Mitogen-activated protein kinase 11 (Homo sapiens) (UniProt Q15759); experiment: Inhibition of p38-beta (unknown origin) assessed as residual activity at 1000 nM by KINOMEscan analysis relative to control
[11] = target: Cyclin-dependent kinase 18 (Homo sapiens) (UniProt Q07002); experiment: Inhibition of PCTK3 (unknown origin) assessed as residual activity at 1000 nM by KINOMEscan analysis relative to control
[12] = target: T1, Serine/threonine-protein kinase PLK4 (Homo sapiens) (UniProt O00444); experiment: Inhibition of PLK4 (unknown origin) assessed as residual activity at 1000 nM by KINOMEscan analysis relative to control
T1 sequence (whole entry): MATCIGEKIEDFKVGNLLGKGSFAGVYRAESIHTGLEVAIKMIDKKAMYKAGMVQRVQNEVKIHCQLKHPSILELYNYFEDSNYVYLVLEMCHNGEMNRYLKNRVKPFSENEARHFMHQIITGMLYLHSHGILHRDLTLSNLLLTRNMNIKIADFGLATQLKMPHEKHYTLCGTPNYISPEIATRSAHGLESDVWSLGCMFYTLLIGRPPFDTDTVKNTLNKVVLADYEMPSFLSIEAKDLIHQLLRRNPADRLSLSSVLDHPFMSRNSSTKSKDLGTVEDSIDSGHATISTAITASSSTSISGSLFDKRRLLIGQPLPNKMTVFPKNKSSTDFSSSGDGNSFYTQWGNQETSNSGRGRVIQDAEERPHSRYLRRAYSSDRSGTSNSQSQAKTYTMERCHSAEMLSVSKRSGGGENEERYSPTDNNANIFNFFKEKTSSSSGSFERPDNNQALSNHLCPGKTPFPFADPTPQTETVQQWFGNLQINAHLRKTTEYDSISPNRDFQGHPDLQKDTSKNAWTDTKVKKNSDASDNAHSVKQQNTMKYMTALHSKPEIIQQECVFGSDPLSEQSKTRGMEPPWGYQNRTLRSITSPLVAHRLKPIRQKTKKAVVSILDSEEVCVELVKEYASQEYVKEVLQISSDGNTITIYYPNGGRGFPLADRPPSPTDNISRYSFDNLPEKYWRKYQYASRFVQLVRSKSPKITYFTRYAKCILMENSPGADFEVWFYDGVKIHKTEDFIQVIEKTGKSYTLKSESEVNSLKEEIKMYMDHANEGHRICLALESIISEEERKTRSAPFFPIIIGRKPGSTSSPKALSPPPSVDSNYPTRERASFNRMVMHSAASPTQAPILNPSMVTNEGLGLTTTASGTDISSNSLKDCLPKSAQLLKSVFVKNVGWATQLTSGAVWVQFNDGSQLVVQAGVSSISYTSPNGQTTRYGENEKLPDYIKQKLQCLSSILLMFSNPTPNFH

[13] = target: Serine/threonine-protein kinase VRK2 (Homo sapiens) (UniProt Q86Y07); experiment: Inhibition of VRK2 (unknown origin) assessed as residual activity at 1000 nM by KINOMEscan analysis relative to control
Serine/threonine-protein kinase VRK2 (Homo sapiens), sequence (Q86Y07 whole entry): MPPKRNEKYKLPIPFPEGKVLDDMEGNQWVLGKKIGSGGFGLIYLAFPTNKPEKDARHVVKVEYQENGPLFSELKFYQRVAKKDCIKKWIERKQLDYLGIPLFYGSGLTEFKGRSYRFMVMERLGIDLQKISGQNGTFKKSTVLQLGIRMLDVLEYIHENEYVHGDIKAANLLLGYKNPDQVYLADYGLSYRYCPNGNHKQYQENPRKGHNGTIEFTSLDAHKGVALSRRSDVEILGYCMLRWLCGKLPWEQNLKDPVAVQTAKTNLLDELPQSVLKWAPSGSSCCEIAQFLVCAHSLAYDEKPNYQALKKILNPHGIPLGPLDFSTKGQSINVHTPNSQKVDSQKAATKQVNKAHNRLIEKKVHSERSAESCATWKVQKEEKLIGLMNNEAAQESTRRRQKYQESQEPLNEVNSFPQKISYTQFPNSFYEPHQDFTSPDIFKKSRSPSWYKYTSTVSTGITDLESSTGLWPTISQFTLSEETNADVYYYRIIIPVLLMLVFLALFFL

RAC-alpha serine/threonine-protein kinase (Homo sapiens), sequence (P31749 whole entry): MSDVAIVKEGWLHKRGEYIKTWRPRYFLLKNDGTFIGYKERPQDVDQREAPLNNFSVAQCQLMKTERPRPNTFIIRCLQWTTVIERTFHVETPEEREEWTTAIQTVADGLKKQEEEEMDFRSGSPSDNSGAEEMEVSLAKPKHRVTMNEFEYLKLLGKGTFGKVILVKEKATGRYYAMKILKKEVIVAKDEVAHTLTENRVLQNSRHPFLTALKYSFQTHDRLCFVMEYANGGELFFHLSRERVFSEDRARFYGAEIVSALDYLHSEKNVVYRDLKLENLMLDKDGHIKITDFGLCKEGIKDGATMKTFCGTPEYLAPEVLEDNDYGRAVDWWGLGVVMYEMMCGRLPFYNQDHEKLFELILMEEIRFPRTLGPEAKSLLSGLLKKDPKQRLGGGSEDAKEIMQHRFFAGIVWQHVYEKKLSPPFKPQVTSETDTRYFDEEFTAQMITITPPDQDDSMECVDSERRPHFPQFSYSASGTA

## COc1cc2nc(C)nc(N[C@H](C)c3cccc(-c4cn[nH]c4)c3)c2cc1OC
[1]
  Activity: 82%
[2]
  Activity: 94%
[3]
  Activity: 90%
[4]
  Activity: 100%
Homo sapiens
  Activity: 71%
[5]
  Activity: 56%
[6]
  Activity: 99%
[7]
  Activity: 100%
[8]
  Activity: 78%
[9]
  Activity: 94%
[10]
  Activity: 97%
[11]
  Activity: 99%
[12]
  Activity: 100%
[13]
  Activity: 93%

## COc1cc2ncnc(N[C@H](C)c3cccc4ccccc34)c2cc1OC
[1]
  Activity: 87%
[2]
  Activity: 76%
[3]
  Activity: 96%
[4]
  Activity: 87%
Homo sapiens
  Activity: 93%
[5]
  Activity: 44%
[6]
  Activity: 100%
[7]
  Activity: 73%
[8]
  Activity: 100%
[9]
  Activity: 100%
[10]
  Activity: 96%
[11]
  Activity: 100%
[12]
  Activity: 96%
[13]
  Activity: 81%
